Source: patent US6114393A, “Use of inhibitors of the sodium-hydrogen exchanger for the production of a pharmaceutical for the treatment of disorders which are caused by protozoa” (Hoechst Marion Roussel Deutschland GmbH, priority 1997, dated 2000)
Where a name gives a salt, the structure may show the parent alone. Read-outs that look alike come from different tables or passages of the source.

Experiments:
[1] = test system: Plasmodium falciparum HB3 (chloroquine-sensitive) strain; assay: growth inhibition of Plasmodium falciparum, [3H]-hypoxanthine incorporation, chloroquine-sensitive (HB3) strain; assay type: cell-based; conditions: 48 h erythrocyte cycle, ring stage, 1% parasitemia
Protocol: (§1) Erythrocytic stages of the human malaria parasite Plasmodium falciparum were cultured in RPMI 1640 medium, with L-glutamine, 25 mM HEPES, 4 μg/ml of gentamycin, 10% human serum and 5% human erythrocytes, according to Trager and Jensen (1976). The cultures were kept in Petri dishes (10 ml per dish with 10 cm diameter) and incubated at 37° C. in an atmosphere of 92% nitrogen, 3% carbon dioxide and 5% oxygen. The medium of the cultures was changed daily. At a parasitemia of at most 10%, the cultures were diluted. In order to synchronize the cultures, the infected erythrocytes were washed in 5% strength sorbitol solution according to Lambros and Vanderberg (1979). Only the ring stages survive this treatment.
(§2) The half-maximal inhibitory concentration of various NHE inhibitors for the growth of Plasmodium flaciparum was measured in 96-well microtiter plates by incorporation of radioactive hypoxanthine according to Desjardins et al. (1979). In this case, the parasites were cultured for a complete erythrocyte cycle lasting 48 hours in the presence of the corresponding NHE inhibitors.
(§3) The NHE inhibitors were dissolved in DMSO and prediluted in physiological saline solution (150 mM NaCl). The dilution series of the NHE inhibitors in 10-fold concentrated 20 μl aliquots was initially introduced onto the microtiter plates, 180 μl of parasite suspension in culture medium were then added to each one. The parasites were in the ring stage with a parasitemia of 1%. The microtiter plates were then incubated for 24 hours. In order to change the culture medium, 150 μl each of supernatant from each well were removed and replaced by 135 μl of new medium, additionally supplemented with 2 μCi/ml of [3H]-hypoxanthine. […] After incubation for a further 24 hours, the cultures were harvested by filtration on glass fiber filters and the incorporated radioactivity was measured. […]
(§4) The IC50 values of the various NHE inhibitors were measured on a chloroquine-sensitive (HB3) and a chloroquine-resistant (Dd2) strain.

[2] = test system: Plasmodium falciparum Dd2 (chloroquine-resistant) strain; assay: growth inhibition of Plasmodium falciparum, [3H]-hypoxanthine incorporation, chloroquine-resistant (Dd2) strain; assay type: cell-based; conditions: read-out: Dd2 IC50
Protocol: as §1, §2, §3, §4

[3] = Dd2, chloroquine-resistant, 48 h erythrocyte cycle, ring stage, 1% parasitemia

SMILES | IC50 [1] [µM] | IC50 [2, 3] [µM] | IC50 ([2]; DD2, Erythrocyte, 48 h) [µM]
NC(N)=NC(=O)c1ccc(Oc2cccnc2)c(C(F)(F)F)c1 [3-trifluoromethyl-4-(3-pyridyloxy)benzoylguanidine dihydrochloride] | 12 ± 1.7 | 6.5 ± 1.5 | 
CN(C)c1cc(C(=O)N=C(N)N)cc(C(F)(F)F)c1 [3-trifluoromethyl-5-N,N-dimethylaminobenzoylguanidine dihydrochloride] | 9.97 | 1.3 ± 0.1 | 
CS(=O)(=O)c1cc(C(=O)N=C(N)N)ccc1Oc1ccc(CCN)cc1 [4-[4-(2-aminoethyl)phenoxy]-3-methylsulfonylbenzoylguanidine dihydrochloride] | 2.9 ± 0.79 |  | 3.5 ± 0.04
